Data reported in US20110015119A1, “NOVEL SEMI-SYNTHETIC GLYCOPEPTIDES AS ANTIBACTERIAL AGENTS” (LEAD THERAPEUTICS, INC., priority 2009, published 2011).
Values after ≈ are worked out from the molar mass of the structure shown. Where two headings read alike, the source gives them in different places.

Columns and labels:
Format in all cases: cell-based
[1] = test system: Staphylococcus epidermidis 831 (MRSE); test: MIC by broth microdilution, SE 831; details: read-out: MIC SE 831
Description: (§1) Antibacterial activity in vitro is investigated by broth microdilution method in Meuller-Hinton broth as recommended by NCCLS. All strains tested are clinical isolates either sensitive or resistant to natural glycopeptides. MIC values were determined using the CLSI-recommended broth microdilution procedure (Clinical and Laboratory Standards Institute, Methods for Dilution Antimicrobial Susceptibility Tests for Bacteria That Grow Aerobically; Approved Standard-Seventh Edition.). Automated liquid handlers (Multidrop 384, Labsystems, Helsinki, Finland; Biomek 2000 and Multimek 96, Beckman Coulter, Fullerton Calif.) were used to conduct serial dilutions and liquid transfers. The MIC value for vancomycin is given for comparison. The abbreviations for organisms tested are as follow: SA 100—Staphylococcus aureus 100 (ATCC 29213); SA 757—Staphylococcus aureus 757 (MRSA); SA 2012—Staphylococcus aureus 2012 (VISA); SE 835—Staphylococcus epidermidis 835; SE 831—Staphylococcus epidermidis 831 (MRSE); EFc 101—Enterococcus faecalis 101 (ATCC 29212); EFc 848—Enterococcus faecalis 848 (VRE, Van A); EFcm 800—Enterococcus faecium 800; EFcm 752—Enterococcus faecium 752 (VRE, Van A); SPNE 1195—Streptococcus pneumoniae 1195 (ATCC 49619); SPY 712—Streptococcus pyogenes 712.

[2] = test system: Enterococcus faecalis 848 (VRE, Van A); test: MIC by broth microdilution, EFc 848; details: class symbols
Description: as §1

[3] = test system: Staphylococcus aureus 2012 (VISA); test: MIC by broth microdilution, SA 2012; details: class symbols
Description: as §1

[4] = test system: Enterococcus faecium 752 (VRE, Van A); test: MIC by broth microdilution, EFcm 752; details: class symbols
Description: as §1

[5] = test system: Streptococcus pneumoniae 1195 (ATCC 49619); test: MIC by broth microdilution, SPNE 1195
Description: as §1

[6] = test system: Staphylococcus aureus 100 (ATCC 29213); test: MIC by broth microdilution, SA 100
Description: as §1

[7] = test system: Enterococcus faecalis 101 (ATCC 29212); test: MIC by broth microdilution, EFc 101; details: class symbols
Description: as §1

[8] = test system: Streptococcus pyogenes 712; test: MIC by broth microdilution, SPY 712
Description: as §1

Enterococcus faecium 800 = test: MIC by broth microdilution, EFcm 800
Description: as §1

[9] = test system: Staphylococcus aureus 757 (MRSA); test: MIC by broth microdilution, SA 757; details: read-out: MIC SA 757
Description: as §1

[10] = test system: Staphylococcus epidermidis 835; test: MIC by broth microdilution, SE 835
Description: as §1

[11] = Staphylococcus epidermidis, MRSE
[12] = Enterococcus faecalis, VRE, read-out: MIC E FC 848, Enterococcus faecalis 848 (VRE, Van A)
[13] = Staphylococcus aureus, VISA, read-out: MIC SA 2012, Staphylococcus aureus 2012 (VISA)
[14] = Enterococcus faecium, VRE, read-out: MIC E FCM 752, Enterococcus faecium 752 (VRE, Van A)
[15] = Streptococcus pneumoniae, ATCC49619, read-out: MIC S PNE 1195
[16] = Staphylococcus aureus, ATCC29213, read-out: MIC SA 100
[17] = Enterococcus faecalis, ATCC29212, read-out: MIC E FC 101, Enterococcus faecalis 101 (ATCC 29212)
[18] = Streptococcus pyogenes, 712, read-out: MIC S PYO 712
[19] = Enterococcus faecium, 800, read-out: MIC E FCM 800
[20] = Staphylococcus epidermidis, 835, read-out: MIC SE 835

Row | Compound | MIC [1, 11] [µg/mL] | MIC [2, 12] [µg/mL] | MIC [3, 13] [µg/mL] | MIC [4, 14] [µg/mL] | MIC [5, 15] [µg/mL] | MIC [6, 16] [µg/mL] | MIC [7, 17] [µg/mL] | MIC [8, 18] [µg/mL] | MIC (Enterococcus faecium 800; [19]) [µg/mL] | MIC ([9]; Staphylococcus aureus, MRSA) [µg/mL] | MIC [10, 20] [µg/mL] | further results
1 | CCCCOc1ccc(CCNC(=O)Oc2cc(O)c3c(c2)[C@@H](C(=O)O)NC(=O)[C@H]2NC(=O)[C@H](NC(=O)[C@@H]4NC(=O)[C@H](CC(N)=O)NC(=O)[C@H](NC(=O)[C@@H](CC(C)C)NC)[C@H](O)c5ccc(c(Cl)c5)Oc5cc4cc(c5O[C@@H]4O[C@H](CO)[C@@H](O)[C@H](O)[C@H]4O[C@H]4C[C@](C)(N)[C@H](O)[C@H](C)O4)Oc4ccc(cc4Cl)[C@H]2O)c2ccc(O)c-3c2)cc1 (atropisomer, axis not shown) [Compound 351] | 0.5 to 1 (≈ 0.3 to 0.599 µM) | > 16 | 4 to 8 (≈ 2.4 to 4.79 µM) | 8 to 16 (≈ 4.79 to 9.59 µM) | 0.01 to 0.5 (≈ 0.00599 to 0.3 µM) | 0.01 to 0.5 (≈ 0.00599 to 0.3 µM) | 0.5 to 1 (≈ 0.3 to 0.599 µM) | 0.01 to 0.5 (≈ 0.00599 to 0.3 µM) | 0.01 to 0.5 (≈ 0.00599 to 0.3 µM) | 0.01 to 0.5 (≈ 0.00599 to 0.3 µM) | 0.5 to 1 (≈ 0.3 to 0.599 µM) | –
2 | CCCCCCc1ccc(S(=O)(=O)NCCCCCCNCc2c(O)cc3c(c2O)-c2cc(ccc2O)[C@H]2NC(=O)[C@@H]4NC(=O)[C@H](CC(N)=O)NC(=O)[C@H](NC(=O)[C@@H](CC(C)C)NC)[C@H](O)c5ccc(c(Cl)c5)Oc5cc4cc(c5O[C@@H]4O[C@H](CO)[C@@H](O)[C@H](O)[C@H]4O[C@H]4C[C@](C)(NC(=O)NC5CC5)[C@H](O)[C@H](C)O4)Oc4ccc(cc4Cl)[C@@H](O)[C@H](NC2=O)C(=O)N[C@@H]3C(=O)O)cc1 (atropisomer, axis not shown) [Compound 365] | – | – | – | – | – | – | – | – | – | – | – | MIC ([1]; Staphylococcus epidermidis 831 (MRSE), class symbols): 0.01 to 0.5 µg/mL (≈ 0.00531 to 0.265 µM); MIC ([2]; Enterococcus faecalis 848 (VRE, Van A), read-out: MIC E FC 848): > 16 µg/mL; MIC ([3]; Staphylococcus aureus 2012 (VISA), read-out: MIC SA 2012): 0.01 to 0.5 µg/mL (≈ 0.00531 to 0.265 µM); MIC ([4]; Enterococcus faecium 752 (VRE, Van A), read-out: MIC E FCM 752): 1 to 2 µg/mL (≈ 0.531 to 1.06 µM); MIC ([5]; ATCC49619, Streptococcus pneumoniae 1195 (ATCC 49619), class symbols, read-out: MIC S PNE 1195): 0.01 to 0.5 µg/mL (≈ 0.00531 to 0.265 µM); MIC ([6]; ATCC29213, Staphylococcus aureus 100 (ATCC 29213), class symbols, read-out: MIC SA 100): 0.01 to 0.5 µg/mL (≈ 0.00531 to 0.265 µM); MIC ([7]; ATCC29212, Enterococcus faecalis 101 (ATCC 29212), read-out: MIC E FC 101): 0.01 to 0.5 µg/mL (≈ 0.00531 to 0.265 µM); MIC ([8]; Streptococcus pyogenes 712, class symbols, read-out: MIC S PYO 712): 0.01 to 0.5 µg/mL (≈ 0.00531 to 0.265 µM); MIC (Enterococcus faecium 800; Enterococcus faecium 800, class symbols, read-out: MIC E FCM 800): 0.01 to 0.5 µg/mL (≈ 0.00531 to 0.265 µM); MIC ([9]; Staphylococcus aureus 757 (MRSA), class symbols): 0.01 to 0.5 µg/mL (≈ 0.00531 to 0.265 µM); MIC ([10]; Staphylococcus epidermidis 835, class symbols, read-out: MIC SE 835): 0.01 to 0.5 µg/mL (≈ 0.00531 to 0.265 µM)
3 | CCOCCOCCNC(=O)Oc1cc(O)c2c(c1)[C@@H](C(=O)O)NC(=O)[C@H]1NC(=O)[C@H](NC(=O)[C@@H]3NC(=O)[C@H](CC(N)=O)NC(=O)[C@H](NC(=O)[C@@H](CC(C)C)NC)[C@H](O)c4ccc(c(Cl)c4)Oc4cc3cc(c4O[C@@H]3O[C@H](CO)[C@@H](O)[C@H](O)[C@H]3O[C@H]3C[C@](C)(N)[C@H](O)[C@H](C)O3)Oc3ccc(cc3Cl)[C@H]1O)c1ccc(O)c-2c1 (atropisomer, axis not shown) [Compound 353] | 4 to 8 (≈ 2.49 to 4.97 µM) | > 16 | > 16 | > 16 | 0.01 to 0.5 (≈ 0.00622 to 0.311 µM) | 4 to 8 (≈ 2.49 to 4.97 µM) | 4 to 8 (≈ 2.49 to 4.97 µM) | 1 to 2 (≈ 0.622 to 1.24 µM) | 2 to 4 (≈ 1.24 to 2.49 µM) | 4 to 8 (≈ 2.49 to 4.97 µM) | 8 to 16 (≈ 4.97 to 9.95 µM) | –
4 | CCCCCOc1ccc(S(=O)(=O)NCCCCCCNC(=O)Oc2cc(O)c3c(c2)[C@@H](C(=O)O)NC(=O)[C@H]2NC(=O)[C@H](NC(=O)[C@@H]4NC(=O)[C@H](CC(N)=O)NC(=O)[C@H](NC(=O)[C@@H](CC(C)C)NC)[C@H](O)c5ccc(c(Cl)c5)Oc5cc4cc(c5O[C@@H]4O[C@H](CO)[C@@H](O)[C@H](O)[C@H]4O[C@H]4C[C@](C)(N)[C@H](O)[C@H](C)O4)Oc4ccc(cc4Cl)[C@H]2O)c2ccc(O)c-3c2)cc1 (atropisomer, axis not shown) [Compound 322] | 0.01 to 0.5 (≈ 0.0055 to 0.275 µM) | 8 to 16 (≈ 4.4 to 8.8 µM) | 1 to 2 (≈ 0.55 to 1.1 µM) | 2 to 4 (≈ 1.1 to 2.2 µM) | 0.01 to 0.5 (≈ 0.0055 to 0.275 µM) | 0.01 to 0.5 (≈ 0.0055 to 0.275 µM) | 0.01 to 0.5 (≈ 0.0055 to 0.275 µM) | 0.01 to 0.5 (≈ 0.0055 to 0.275 µM) | 0.01 to 0.5 (≈ 0.0055 to 0.275 µM) | 0.01 to 0.5 (≈ 0.0055 to 0.275 µM) | 0.01 to 0.5 (≈ 0.0055 to 0.275 µM) | –
